Assay results as given in patent US11046668B2, “Small molecule antimicrobials” (Ohio State Innovation Foundation, priority 2016, dated 2021).
≈ marks a conversion by molar mass, not a printed value. Entries after “also recorded” stand apart in the source; their conditions may differ. Marks after values point to notes of the source that are not given here.

Legend:
[1] = system: L. innocua; assay: Log reduction test in tapioca film
Experimental: (§1) The films prepared above were cut into small pieces that were capable of fitting into 1.5 ml micro-tubes. The weight of each film sample ranged from 5 to 15 mg. The micro-tubes were then exposed to UV light for 18 hours to eliminate possible contamination that may have occurred during the cutting and transferring process. […] After adding the proper amount of bacterial culture, the micro-tubes were placed in an incubator aerobically at 37° C. (for E. coli and L. innocua), or microaerobically at 42° C. (for C. jejuni and C. coli), for 24 hours, respectively.
(§2) After 24 hours incubation, the broth was centrifuged at 4,000 rpm for 5 min at 23° C. with appropriate aseptic precautions. The supernatant was discarded and the pellet resuspended using 1 ml of sterile peptone water and centrifuged again at 4000 rpm for 5 min. This step was repeated until the supernatant was clear. The pellets were then suspended in 1 ml sterile peptone water, and seven consecutive 10-fold dilutions were made to obtain inoculums ready for the plate counts. For the experimental groups with the small molecule compounds, 0.1 ml of diluted broth (dilution of 10^−2; 10^−4; 10^−6) were inoculated on to the plates. For the control groups, 0.1 ml of diluted broth (dilution of 10^−6 and 10^−7) was added to the plates. They were then incubated at 37° C. aerobically (for E. coli and L. innocua), or 42° C. microaerobically (for C. jejuni and C. coli) for 24 hours, and then colony numbers on each plate counted using a Darkfield Colony Counter manufactured by American Optical (Buffalo, N.Y.).

[2] = system: L. innocua; assay: Log reduction test in broth; conditions: 100 ppm JA-144
Experimental: as §2

[3] = system: colon cells (CCD-112CoN, ATCC); assay: Cytotoxicity assay on normal colon cells (sulforhodamine B); type: cell-based, human; conditions: for survival rates of colon cells: at 200 μM; for highest concentrations of each compound to cause lysis of human colon cells, converted to ppm: 200 μM converted to ppm; for toxicity against the colon cells: CCD-112CoN, ATCC, data not shown
[4] = system: C. jejuni; assay: Log reduction test in broth; conditions: JA-144 6.25 ppm, TH-4 25 ppm, TH-8 50 ppm, 24 hours; for Log10 CFU/ml reduction: C. jejuni in broth, vs control; for C. jejuni count after treatment: in broth
Experimental: as §2

[5] = system: L. innocua; assay: MIC test in 96 well plate with TTC; type: cell-based, Listeria innocua; conditions: for antimicrobial activity: starting concentration 50 ppm
[6] = system: L. innocua; assay: Bacterial growth curves (optical density); conditions: OD over 24 hours at 37° C.
Experimental: (§3) For E. coli K12 and L. innocua, the bacterial incubations were followed by measurements of the Optical Density (OD) values every 15 minutes in an automated Sunrise™ Tecan Spectrophotometer (Tecan Co.) during an incubation period of 24 hours at 37° C. For C. jejuni, the incubation experimental design was similar, but the measurement period occurred every 4 hours. From the data collected, comparisons were made with the control samples and statistical analyses were used to determine the significance between the means for all observations.

[7] = system: C. jejuni; assay: Bacterial growth curves (optical density); conditions: OD every 4 hours
Experimental: as §3

[8] = system: E. coli K12; assay: Bacterial growth curves (optical density); conditions: OD over 24 hours at 37° C.
Experimental: as §3

[9] = system: pathogenic E.coli, Listeria strain, C. jejuni and E. coli bacteria; assay: Efficacy of JA-144 when incorporated in edible films (Example 1); type: cell-based
Text: As described in primary HTS, we screened re-synthesized two compounds for C. jejuni 81-176 growth inhibition. Both re-synthesized compounds effective inhibiting Campylobacter growth at tested concentrations. […] Where positive control (P CNTL includes Campylobacter culture with known antibiotics and negative control (N CNTL) include Camylobacter culture alone. See FIG. 13. Testing the efficacy of JA-144 when incorporated in edible films against pathogenic E.coli, Listeria strain, C. jejuni and E. coli bacteria. The control (CNTL) include edible film alone. JA-144 was effective in reducing most of the pathogenic bacteria by 4 log. See FIG. 14. A cytotoxicity assay for potent semi-synthetic derivative compounds were performed using normal colon cells and sulfohodamine B methods. See FIG. 15. A cytotoxicity assay was performed for two re-synthesized compounds using normal colon cells and sulforhodamine B methods.

[10] = system: E. coli K12; assay: Log reduction test in broth; conditions: 100 ppm JA-144
Experimental: as §2

[11] = system: C. coli; assay: Log reduction test in broth; conditions: JA-144 3.125 ppm, TH-4 12.5 ppm, TH-8 50 ppm, 24 hours; for Log10 CFU/ml reduction: C. coli in broth, vs control; for C. coli count after treatment: in broth
Experimental: as §2

[12] = system: C. jejuni; assay: Log reduction test in tapioca film; conditions: for % Efficacy loss due to incorporation / Log10 CFU/ml reduction: C. jejuni; for % Efficacy loss due to incorporation: film vs broth; for Log10 CFU/ml reduction / C. jejuni count after treatment: in tapioca film, JA-144 6.25 ppm, TH-4 25 ppm, TH-8 50 ppm, 24 hours; for Log10 CFU/ml reduction: vs control
Experimental: as §1, §2

[13] = system: Salmonella, E. coli, Listeria and also several commensal and/or probiotic bacteria; assay: Specificity against diverse foodborne pathogens and commensal/probiotic bacteria; type: cell-based; conditions: tested for specificity against foodborne pathogens and commensal/probiotic bacteria
[14] = system: C. jejuni; assay: MIC test in 96 well plate with TTC; type: cell-based; conditions: Campylobacter jejuni, 42° C. microaerobically, 24 hours
[15] = system: E. coli K12; assay: Log reduction test in tapioca film
Experimental: as §1, §2

[16] = system: C. coli; assay: Log reduction test in tapioca film; conditions: for % Efficacy loss due to incorporation / Log10 CFU/ml reduction: C. coli; for % Efficacy loss due to incorporation: film vs broth; for Log10 CFU/ml reduction / C. coli count after treatment: in tapioca film, JA-144 3.125 ppm, TH-4 12.5 ppm, TH-8 50 ppm, 24 hours; for Log10 CFU/ml reduction: vs control
Experimental: as §1, §2

[17] = system: C. coli; assay: MIC test in 96 well plate with TTC; type: cell-based; conditions: Campylobacter coli, 42° C. microaerobically, 24 hours
[18] = system: E. coli K12; assay: MIC test in 96 well plate with TTC; type: cell-based; conditions: for antimicrobial activity: starting concentration 50 ppm
[19] = system: C. jejuni colonization; assay: In vivo effect on C. jejuni colonization in broiler chickens; conditions: administered orally, in 30% DMSO; three week old broiler chickens
[20] = Solubility in water; type: physicochemical
[21] = in tapioca film, 1% w/w JA-144, 24 hours incubation

Row | Structure (SMILES) | survival rates of colon cells [3] [%] | highest concentrations of each compound to cause lysis of human colon cells [3] [µM] | highest concentrations of each compound to cause lysis of human colon cells, converted to ppm [3] [ppm] | Log10 CFU/ml reduction [4] [Log10 CFU/ml] | C. jejuni count after treatment [4] | concentration that completely inhibited growth (growth curve) [7] [ppm] | Log10 CFU/ml reduction [11] [Log10 CFU/ml] | C. coli count after treatment [11] | % Efficacy loss due to incorporation [12] [%] | Log10 CFU/ml reduction [12] [Log10 CFU/ml] | C. jejuni count after treatment [12] | spectrum of antibacterial activity [13] | MIC [14] [µg/mL] | % Efficacy loss due to incorporation [16] [%] | Log10 CFU/ml reduction [16] [Log10 CFU/ml] | C. coli count after treatment [16] | MIC [17] [µg/mL] | in vivo results in a chicken model [19] | toxicity against the colon cells [3] | antimicrobial activity [5] | further results
1 | OCC1(Cc2ccccc2)CCCN(Cc2cc3ccccc3[nH]2)C1 (stereo not shown) [JA-144] | 99 | 200 | 66.9 | 6.35 | 2.90 ± 0.09^a Log10 CFU/ml | 6.25 | 6.27 | 2.93 ± 0.26^a Log10 CFU/ml | 0.25 | 6.36 | 2.86 ± 0.13^a Log10 CFU/ml | broad spectrum effect on other bacteria including E. coli and Listeria | 3.12 to 6.25 (≈ 9.34 to 18.7 µM) | 2.03 | 6.14 | 2.93 ± 0.16^a Log10 CFU/ml | 3.12 to 6.25 (≈ 9.34 to 18.7 µM) | – | – | – | Percent efficacy loss due to incorporation ([1]; L. innocua, film vs broth): 36.42%; Log10 CFU/ml reduction ([1]; L. innocua, tapioca film, 1% w/w JA-144, 24 hours, vs control): 3.51 Log10 CFU/ml; L. innocua count after treatment [1, 21]: 5.22 ± 0.07^b Log10 CFU/ml; Log10 CFU/ml reduction ([2]; L. innocua in broth, 24 hours, vs control): 5.52 Log10 CFU/ml; L. innocua count after treatment ([2]; in broth, 24 hours incubation): 3.14 ± 0.11^b Log10 CFU/ml; MIC ([5]; Listeria innocua, 37° C. aerobically, 24 hours): 50 to 100 µg/mL (≈ 149 to 299 µM); concentration that completely inhibited growth (growth curve) [6]: 100 ppm; concentration that completely inhibited growth (growth curve) [8]: 100 ppm; reduction of most of the pathogenic bacteria [9]: 4 log; Log10 CFU/ml reduction ([10]; E. coli K12 in broth, 24 hours, vs control): 5.86 Log10 CFU/ml; E. coli K12 count after treatment ([10]; in broth, 24 hours incubation): 2.96 ± 0.30^a Log10 CFU/ml; Percent efficacy loss due to incorporation ([15]; E. coli K12, film vs broth): 43.48%; Log10 CFU/ml reduction ([15]; E. coli K12, tapioca film, 1% w/w JA-144, 24 hours, vs control): 3.31 Log10 CFU/ml; E. coli K12 count after treatment [15, 21]: 5.58 ± 0.08^a Log10 CFU/ml; MIC ([18]; Escherichia coli, 37° C. aerobically, 24 hours): 100 µg/mL (≈ 299 µM)
2 | O=S(=O)(NCc1ccc(F)cc1)c1ccc(Cl)s1 [TH-4] | 60 | 200 | 61.1 | 6.37 | 2.78 ± 0.09^a Log10 CFU/ml | 25 | 6.16 | 3.21 ± 0.12^a Log10 CFU/ml | 6.09 | 5.99 | 3.16 ± 0.14^a Log10 CFU/ml | specific to C. jejuni and C. coli | 12.5 to 25 (≈ 40.9 to 81.8 µM) | 29.02 | 4.37 | 5.03 ± 0.07^a Log10 CFU/ml | 12.5 to 25 (≈ 40.9 to 81.8 µM) | promising in vivo results | lacked toxicity | ineffective; also recorded: no antimicrobialactivity | solubility in water [20]: not readiliy soluble in water; antimicrobial activity [18]: ineffective; also recorded: no antimicrobialactivity
3 | Cc1ccccc1CNS(=O)(=O)c1ccc(Cl)s1 [TH-8] | 79 | 200 | 60.4 | 5.39 | 3.64 ± 0.05^a Log10 CFU/ml | 50 | 5.51 | 4.11 ± 0.05^a Log10 CFU/ml | 25.52 | 4.01 | 5.10 ± 0.07^a Log10 CFU/ml | specific to C. jejuni and C. coli | 25 to 50 (≈ 82.8 to 166 µM) | 48.01 | 2.87 | 6.83 ± 0.06^a Log10 CFU/ml | 25 to 50 (≈ 82.8 to 166 µM) | promising in vivo results | lacked toxicity | ineffective; also recorded: did not show antimicrobialactivity | solubility in water [20]: not readiliy soluble in water; antimicrobial activity [18]: ineffective; also recorded: did not show antimicrobialactivity
